# Source: article PMC4565196 (Biochimica et biophysica acta, 2014)
# Key:
# [1] = tested on: A2AR single and double Cys-to-Ala variants; experiment: Fluorescent-ligand binding to the A2AR variants; parameters: species or system human; settings: HEK-293 cells, untagged A2AR constructs, 70 nM FITC-APEC, 1 h at 37 °C
# A2a–adenosine receptors = settings: high affinity fluorescent agonist; cited from earlier work
smiles,measurement,setting,value
"CCNC(=O)[C@H]1O[C@@H](n2cnc3c(N)nc(NCCc4ccc(CCC(=O)NCCNC(=S)Nc5ccc6c(c5)C(=O)OC6(c5ccc(O)cc5)c5ccc(O)cc5)cc4)nc32)[C@H](O)[C@@H]1O [FITC-APEC, 2-[2-[4-[2-[2-[1,3-Dihydro-1,1-bis (4-hydroxyphenyl)-3-oxo-5-isobenzofuranthioureidyl]ethylaminocarbonyl]ethyl]phenyl]ethylamino]-5N′-ethylcarboxamidoadenosine]",fluorescent ligand binding at the cell surface,[1],capable of binding
same,Kd,A2a–adenosine receptors,57 nM
